Results from PMC7435657, “[^99mTc]Tc-DB1 Mimics with Different-Length PEG Spacers: Preclinical Comparison in GRPR-Positive Models” (Molecules, 2020).

Legend:
human GRPR = human GRPR (Homo sapiens, UniProt P30550); test: biochemical
Method: Competition binding assays for DB7, DB13 and DB14 were performed in PC-3 cell membranes.
Competition binding experiments of DB7, […] against [^125 I][I-Tyr^4]BBN were conducted in PC-3 cell membranes. Increasing concentrations of tested peptide (10^−13–10^−5 M) were mixed with the radioligand (40,000 cpm per assay tube, at a 50 pM concentration) and the membrane homogenate in a total volume of 300 μL binding buffer (pH 7.4, 50 mM HEPES, 1% BSA, 5.5 mM MgCl2, 35 μM bacitracin). Triplicates of each concentration point were incubated for 60 min at 22 °C in an Incubator-Orbital Shaker unit (MPM Instr. SrI, Bernareggio, MI, Italy). The incubation was interrupted by adding ice-cold washing buffer (10 mM HEPES pH 7.4, 150 mM NaCl), followed by rapid filtration over glass fiber filters (Whatman GF/B, presoaked in binding buffer) on a Brandel Cell Harvester (Adi Hassel Ingenieur Büro, Munich, Germany). Filters were washed with cold washing buffer and were counted for their radioactivity content in an automated well-type gamma counter [NaI(Tl) 3″ crystal, Canberra Packard Cobra Quantum series instrument]. The 50% inhibitory concentration (IC50) values were calculated by nonlinear regression according to a one-site model applying the PRISM 6 program (Graph Pad Software, San Diego, CA, USA) and are expressed as mean ± SD of three experiments performed in triplicate.

PC-3 cells = test: Radiotracer uptake (internalized + membrane bound) in PC-3 cells; type: cell-based, human; conditions: 1 h incubation at 37 °C, % of total added radioactivity, mean ± SD of 3 experiments
Method: The uptake of [^99mTc]Tc-DB7, [^99mTc]Tc-DB13, and [^99mTc]Tc-DB14 in PC-3 cells is compared in Figure 3. In all cases, the bulk of radioactivity was found on the membrane of PC-3 cells with only a small portion detected within the cells, consistent with a noninternalizing radioantagonist profile.
Figure 3 Specific uptake of [^99mTc]Tc-DB7 (pink bars), [^99mTc]Tc-DB13 (violet bars) and [^99mTc]Tc-DB14 (gray bars) in PC-3 cells after 1 h incubation at 37 °C (checkered bars: internalized, solid bars: membrane bound fractions); results represent the mean ± SD of 3 experiments performed in triplicate.
For internalization assays with [^99mTc]Tc-DB7, [^99mTc]Tc-DB13, and [^99mTc]Tc-DB14, PC-3 cells were seeded in six well plates (≈1 × 10^6 cells per well) 24 h before the experiment. […] Nonspecific internalization was determined by a parallel triplicate series containing 1 μM [Tyr^4]BBN. […] Sample radioactivity was measured on the gamma counter and the percentage, of specific internalized and membrane-bound fractions were calculated with Microsoft Excel (after subtracting nonspecific from overall internalized and membrane-bound counts). Results represent specific internalized ± SD of total added radioactivity per well from three experiments performed in triplicate.

Sequence of human GRPR (P30550 whole entry): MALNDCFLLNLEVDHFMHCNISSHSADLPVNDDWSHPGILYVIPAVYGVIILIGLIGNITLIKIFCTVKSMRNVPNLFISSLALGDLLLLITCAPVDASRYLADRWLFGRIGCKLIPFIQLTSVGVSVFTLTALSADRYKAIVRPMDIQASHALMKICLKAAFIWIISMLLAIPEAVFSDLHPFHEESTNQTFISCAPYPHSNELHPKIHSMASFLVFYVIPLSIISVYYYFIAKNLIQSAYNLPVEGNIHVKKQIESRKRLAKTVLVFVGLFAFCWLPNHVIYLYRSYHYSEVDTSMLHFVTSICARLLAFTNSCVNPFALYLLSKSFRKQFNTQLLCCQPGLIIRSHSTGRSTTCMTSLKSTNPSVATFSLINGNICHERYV

Row | Compound | IC50 (human GRPR) [nM] | Specific cell uptake (PC-3 cells) [%]
1 | CCNC(=O)[C@H](CC(C)C)NC(=O)[C@H](Cc1c[nH]cn1)NC(=O)CNC(=O)[C@@H](NC(=O)[C@H](C)NC(=O)[C@H](Cc1c[nH]c2ccccc12)NC(=O)[C@H](CCC(N)=O)NC(=O)[C@@H](Cc1ccccc1)NC(=O)CCOCCOCCOCCNC(=O)C(CNCCN)CNCCN)C(C)C [DB13, [N4-PEGx-DPhe^6,Leu-NHEt^13]BBN(6-13)] | 1.03 ± 0.01 | –
2 | CCNC(=O)[C@H](CC(C)C)NC(=O)[C@H](Cc1c[nH]cn1)NC(=O)CNC(=O)[C@@H](NC(=O)[C@H](C)NC(=O)[C@H](Cc1c[nH]c2ccccc12)NC(=O)[C@H](CCC(N)=O)NC(=O)[C@@H](Cc1ccccc1)NC(=O)CCOCCOCCOCCOCCNC(=O)C(CNCCN)CNCCN)C(C)C [DB14, [N4-PEGx-DPhe^6,Leu-NHEt^13]BBN(6-13)] | 1.18 ± 0.09 | –
3 | [^99mTc]Tc-[N4-PEGx-DPhe^6,Leu-NHEt^13]BBN(6-13) [[^99mTc]Tc-DB7] | – | 2.6 ± 0.5
4 | CCNC(=O)[C@H](CC(C)C)NC(=O)[C@H](Cc1c[nH]cn1)NC(=O)CNC(=O)[C@@H](NC(=O)[C@H](C)NC(=O)[C@H](Cc1c[nH]c2ccccc12)NC(=O)[C@H](CCC(N)=O)NC(=O)[C@@H](Cc1ccccc1)NC(=O)COCCOCCNC(=O)C(CNCCN)CNCCN)C(C)C [DB7, [N4-PEGx-DPhe^6,Leu-NHEt^13]BBN(6-13)] | 0.93 ± 0.01 | –
